Data: patent EP0501713B1, “Optically active aminoketone derivative and method for preparing same” (MITSUI TOATSU CHEMICALS, Inc., priority 1991, dated 1992)

Tests used:
[1] = tested on: skeletal muscle afferent discharge; assay: Action to skeletal muscle afferent discharge (musculus triceps surae nerve fiber); type: in vivo, Wistar rats; settings: i.v., rat, discharge frequency before administration = 100%, tension of 20 g
Source text: The musculus triceps surae was separated from each of Wistar rats (9 to 10 weeks old; Japanese rats) under a mixed anesthetic of urethane and α-chlorarose. There were cut out all the branches of the sciatic nerve except the branch which controls the musculus triceps surae. The medulla spinalis was subjected to laminectomy, and roots of L6 or less were cut out. […] A nerve fiber coming from the musculus triceps surae was only separated from the L5 posterior root. A tension of 20 g was applied to the peripheral end of the musculus triceps surae, and each discharge frequency of the nerve was recorded. Assuming that the discharge frequency before the administration is 100%, the discharge frequency of the nerve was expressed in terms of percentage: (100 -(Discharge frequency at most inhibition)/(Discharge frequency before administration)× 100) [formula]
The test compounds were intravenously administered at 6 and 12 mg/kg.

Acute toxicity = type: in vivo; settings: mouse, in vivo, ip, intraperitoneally administered; mice observed 72 hours later
Procedure: (§1) ddy Male mice (body weights: 25-30 g) were used. Each test compound was intraperitoneally administered, and 72 hours later, the mice were observed as to whether they were alive or dead.
(§2) 50% lethal doses LD50 (mg/kg) were calculated.

[2] = tested on: decerebrate rigidity induced by radio frequency lesions of rat brains; assay: Decerebrate rigidity remission action (method of Ono et al.); type: in vivo, Wistar male rat; settings: i.v., tension before administration = 100%
Source text: Pharmacol., 18, 57 (1987)], the rigidity remission action of the optically active aminoketone derivative of the present invention for the decerebrate rigidity induced by radio frequency lesions of rat brains was investigated.
Each Wistar male rat (body weight: 300-400 g) was anesthetized with ether and then fixed on a stereotaxic apparatus. In accordance with the Pellegrino's stereotaxic brain atlas, the electrodes of a lesion generator (manufactured by Radionics Company) were punctuated to AP: 0, L: ±1.5, V: -3. […] The rigidified rat was fixed in the abdominal position, and the tension of each extension reflex of the extensor of the hind limbs was recorded. Assuming that the tension before the administration was 100%, the rate of rigidity inhibition is expressed in terms of percentage: (100 -(Tension after administration)/(Tension before administration)× 100) [formula]
The test compounds were intravenously administered at 3 and 6 mg/kg.

ddy Male mice = assay: Acute toxicity; type: in vivo; settings: intraperitoneally administered; mice observed 72 hours later; 4320 min
Procedure: as §1, §2

Row | SMILES | Discharge Frequency (%) ([1]; 6 mg/kg) | Discharge Frequency (%) ([1]; 12 mg/kg) | LD50 at 72 h (Acute toxicity) [mg/kg] | Rigidity Inhibition (%) ([2]; 3 mg/kg) | Rigidity Inhibition (%) ([2]; 6 mg/kg) | LD50 (ddy Male mice) [mg/kg]
1 | CCC(CN1CCCC1)C(=O)c1cc(-c2ccccc2)no1 (racemic) [racemic form, 3-phenyl-5-[2-(1-pyrrolidinylmethyl)butyryl]isoxazole, reference compound] | 46 | 27 | 445 | 56 | 65 | 
2 | CCC(CN1CCCC1)C(=O)c1cc(-c2ccccc2)no1 (single isomer, unassigned; (+)) [(+) form, (+)-3-phenyl-5-[2-(1-pyrrolidinylmethyl)butyryl]isoxazole] | 28 | 14 | 386 | 59 | 78 | 
3 | CCC(CN1CCCC1)C(=O)c1cc(-c2ccccc2)no1 (single isomer, unassigned; (-)) [(-) form, (-)-3-phenyl-5-[2-(1-pyrrolidinylmethyl)butyryl]isoxazole] | 83 |  |  | 33 | 53 | 760
